Measured values: US20260226061A1, “COMPOSITIONS USEFUL FOR MODULATING SPLICING” (Skyhawk Therapeutics, Inc., priority 2023, published 2026)

What follows are compounds tested on ATXN3 pre-mRNA (assay: ATXN3 Quantitative Splicing Assay (qPCR, E4E5 primers/probe, transcripts containing exon 4)). Settings: Human neuroblastoma SK-N-MC cells, 24 h treatment, 30 μM to 0.6 nM; read-out: ATXN3 Potency - Splicing E4E5 IC50.
Assay type: cell-based
Procedure: Human neuroblastoma SK-N-MC cells were plated in 384-well plates at 20,000 cells/well. Twenty-four hours after plating, cells were treated with compounds for 24 h at appropriate concentrations ranging from 30 μM to 0.6 nM (0.3% DMSO). Treated cells were lysed in 15 μL of lysis buffer, and cDNA was synthesized using the Fast Advanced Cells-to-Ct kit. Two μL of each cDNA was used in qPCR reactions to confirm the exon 4 skipped transcripts of ATXN3. A second set of primers/probe E4E5 was used to detect the transcripts containing exon 4. The third set of primers/probe E8E9 was used to detect total gene level of ATXN3. The qPCR reactions were prepared in 384-well plates in 10 μL volume, using TaqMan™ Fast Advanced Master Mix with primers and probes shown in the table below. Reactions were run in a Quant Studio 6 qPCR instrument with default settings.
The primers and probes are listed below in Table 3.

Row | Structure (SMILES) | IC50 [nM]
1 | C[C@H](F)[C@H](N)Cc1cc2c(NCc3ccc(F)cc3)nc(Cl)nn2c1Br [Compound 1, 6-((2R,3S)-2-amino-3-fluorobutyl)-7-bromo-2-chloro-N-(4-fluorobenzyl)pyrrolo[2,1-f][1,2,4]triazin-4-amine] | 501 to 5000
2 | C[C@H](F)[C@H](N)Cc1cc2c(NCc3ccccc3F)nc(Cl)nn2c1Br [Compound 4, 6-((2R,3S)-2-amino-3-fluorobutyl)-7-bromo-2-chloro-N-(2-fluorobenzyl)pyrrolo[2,1-f][1,2,4]triazin-4-amine] | 101 to 500
3 | C[C@H](F)[C@H](N)Cc1cc2c(NCc3ccccc3)nc(Cl)nn2c1Cl [Compound 6, 6-((2R,3S)-2-amino-3-fluorobutyl)-N-benzyl-2,7-dichloropyrrolo[2,1-f][1,2,4]triazin-4-amine] | 101 to 500
4 | Cc1c(C[C@@H](N)[C@H](C)F)cc2c(NCc3ccccc3)nc(Cl)nn12 [Compound 7, 6-((2R,3S)-2-amino-3-fluorobutyl)-N-benzyl-2-chloro-7-methylpyrrolo[2,1-f][1,2,4]triazin-4-amine] | 501 to 5000
5 | N[C@H](Cc1cc2c(NCc3ccccc3)nc(Cl)nn2c1Br)CC1CC1 [Compound 9, (S)-6-(2-amino-3-cyclopropylpropyl)-N-benzyl-7-bromo-2-chloropyrrolo[2,1-f][1,2,4]triazin-4-amine] | 501 to 5000
6 | N[C@H](Cc1cc2c(NCc3ccccc3F)nc(Cl)nn2c1Cl)CC1CC1 [Compound 12, (S)-6-(2-amino-3-cyclopropylpropyl)-2,7-dichloro-N-(2-fluorobenzyl)pyrrolo[2,1-f][1,2,4]triazin-4-amine] | 501 to 5000

More lines, now with the values ahead:

Row | IC50 [nM] | Structure (SMILES)
7 | 501 to 5000 | C[C@H](F)[C@H](N)Cc1cc2c(NCc3ccc(F)cc3)nc(Cl)nn2c1Cl [Compound 2, 6-((2R,3S)-2-amino-3-fluorobutyl)-2,7-dichloro-N-(4-fluorobenzyl)pyrrolo[2,1-f][1,2,4]triazin-4-amine]
8 | 501 to 5000 | N[C@H](Cc1cc2c(NCc3ccccc3)nc(Cl)nn2c1Cl)CC1CC1 [Compound 11, (S)-6-(2-amino-3-cyclopropylpropyl)-N-benzyl-2,7-dichloropyrrolo[2,1-f][1,2,4]triazin-4-amine]
9 | 101 to 500 | C[C@H](F)[C@H](N)Cc1cc2c(NCc3ccccc3)nc(Cl)nn2c1Br [Compound 3, 6-((2R,3S)-2-amino-3-fluorobutyl)-N-benzyl-7-bromo-2-chloropyrrolo[2,1-f][1,2,4]triazin-4-amine]
10 | 101 to 500 | C[C@H](F)[C@H](N)Cc1cc2c(NCc3ccccc3F)nc(Cl)nn2c1Cl [Compound 5, 6-((2R,3S)-2-amino-3-fluorobutyl)-2,7-dichloro-N-(2-fluorobenzyl)pyrrolo[2,1-f][1,2,4]triazin-4-amine]
11 | 501 to 5000 | N[C@H](Cc1cc2c(NCc3ccccc3F)nc(Cl)nn2c1Br)CC1CC1 [Compound 10, (S)-6-(2-amino-3-cyclopropylpropyl)-7-bromo-2-chloro-N-(2-fluorobenzyl)pyrrolo[2,1-f][1,2,4]triazin-4-amine]
12 | 101 to 500 | Cc1c(C[C@@H](N)[C@H](C)F)cc2c(NCc3ccccc3F)nc(Cl)nn12 [Compound 8, 6-((2R,3S)-2-amino-3-fluorobutyl)-2-chloro-N-(2-fluorobenzyl)-7-methylpyrrolo[2,1-f][1,2,4]triazin-4-amine]
13 | 5000 to 10000 | Cc1c(C[C@@H](N)CC2CC2)cc2c(NCc3ccccc3F)nc(Cl)nn12 [Compound 14, (S)-6-(2-amino-3-cyclopropylpropyl)-2-chloro-N-(2-fluorobenzyl)-7-methylpyrrolo[2,1-f][1,2,4]triazin-4-amine]
14 | 5000 to 10000 | Cc1c(C[C@@H](N)CC2CC2)cc2c(NCc3ccccc3)nc(Cl)nn12 [Compound 13, (S)-6-(2-amino-3-cyclopropylpropyl)-N-benzyl-2-chloro-7-methylpyrrolo[2,1-f][1,2,4]triazin-4-amine]
